# Results: patent US8183238B2, “Bicyclic and tricyclic compounds as KAT II inhibitors” (priority 2009, dated 2012)
# Where two headings read alike, the source gives them in different places.
# Experiments:
# [1] = Prodrug in vivo pharmacokinetics in monkeys (plasma, LC-MS-MS); design: species or system Monkey (Cynomolgus); conditions: Example 4 in monkey plasma after oral Example 4 (10 mg/kg active); for Cmax / Tmax / half-life / AUC: Cynomolgus, cynomolgus monkey, plasma, po, 10 mg/kg; for F: calculated using IV AUC of 265 ng · h/mL
# Description: Test substances (Examples 4 and 71-73) were administered by oral gavage to groups of two monkeys.
# Blood samples were taken at various times after administration and submitted to analysis for the parent drug (Example 4 and Example 71) and pro-drug (Examples 72 and 73) using an LC-MS-MS assay. […] Pharmacokinetic parameters derived from the plasma analytical data were determined using Watson LIMS 7.2.003 (Thermo Fisher Scientific, Waltham, Mass.). The results are given in FIG. 2 and Tables 13, 14, and 15.
# [2] = biological target: human KAT II (hKAT II) enzyme (Homo sapiens, UniProt Q8N5Z0); assay: KAT II Inhibition Spectra Assay; format: biochemical; conditions: Table 5; hKAT II, decrease in OD370, 37° C., 15-20 h; read-out: KATII IC50
# Outline: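 hKAT II (15 nM, 3× stock) converts L-kynurenine (3 mM, 3× stock) with α-ketoglutarate and PLP in Tris acetate; 15–20 h at 37 °C. Inhibition of the OD370 decrease read versus DMSO wells across a concentration range gives IC50.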
# [3] = Prodrug in vivo pharmacokinetics in rats (plasma, LC-MS-MS); conditions: Wistar-Han, rat
# Description: Test substances (Examples 4, 73, and 366-369) were administered by oral gavage to groups of three rats.
# Blood samples were taken at various times after administration and analyzed for the parent drug (Example 4) and prodrugs (Examples 73 and 366-369) using an LC-MS-MS assay. Pharmacokinetic parameters derived from the plasma analytical data were determined using Watson LIMS version 7.2.003 (Thermo Fisher Scientific, Waltham, Mass.).
# [4] = Prodrug in vivo pharmacokinetics in monkeys (plasma, LC-MS-MS); conditions: Cynomolgus, cynomolgus monkey, iv, 0.3 mg/kg, plasma exposure of Example 4 in monkeys following intravenous administration of Example 4 at 0.3 mg/kg
# [5] = Prodrug in vivo pharmacokinetics in dogs (plasma, LC-MS-MS); design: species or system Dog (Beagle); conditions: Beagle, dog, in vivo, po, 1 mg/kg
# Description: Test substances (Examples 4 and 71-73) were administered by oral gavage to groups of two dogs. Example 71 was also administered intravenously.
# Blood samples were taken at various times after administration and submitted to analysis for the parent drug (Example 71) and pro-drug (Examples 72 and 73) using an LC-MS-MS assay. Pharmacokinetic parameters derived from the plasma analytical data were determined using Watson LIMS 7.2.003 (Thermo Fisher Scientific, Waltham, Mass.). The results are given in FIG. 1 and Tables 8, 9, 10, and 11.
# human KAT II (hKAT II) enzyme, sequence (Q8N5Z0 30-425): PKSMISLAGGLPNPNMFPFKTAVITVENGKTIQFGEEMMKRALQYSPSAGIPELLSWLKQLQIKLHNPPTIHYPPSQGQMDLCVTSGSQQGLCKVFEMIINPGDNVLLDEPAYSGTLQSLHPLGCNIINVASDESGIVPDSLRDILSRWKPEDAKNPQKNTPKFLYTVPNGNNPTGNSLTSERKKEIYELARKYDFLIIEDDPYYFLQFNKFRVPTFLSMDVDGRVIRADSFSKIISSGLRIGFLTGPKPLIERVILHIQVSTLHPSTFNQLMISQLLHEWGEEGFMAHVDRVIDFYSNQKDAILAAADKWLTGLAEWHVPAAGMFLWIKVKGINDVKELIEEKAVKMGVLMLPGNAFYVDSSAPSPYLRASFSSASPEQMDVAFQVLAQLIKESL
smiles,measurement,setting,value
"N[C@H]1Cc2ccccc2N(O)C1=O [Example 4, (3S)-3-amino-1-hydroxy-3,4-dihydroquinolin-2(1H)-one]",Cmax,[1]; Mean,220 ng/mL
same,Tmax,[1]; Mean,41.4 min
same,half-life,[1]; Mean,43.8 min
same,AUC,"[1]; Mean, read-out: AUC",181 ng·h/mL
same,AUC,"[1]; Mean, read-out: AUC Extrap",186 ng·h/mL
same,Cmax,[1]; Monkey 1,200 ng/mL
same,Tmax,[1]; Monkey 1,60 min
same,half-life,[1]; Monkey 1,46.8 min
same,AUC,"[1]; Monkey 1, read-out: AUC",184 ng·h/mL
same,AUC,"[1]; Monkey 1, read-out: AUC Extrap",188 ng·h/mL
same,Cmax,[1]; Monkey 2,340 ng/mL
same,Tmax,[1]; Monkey 2,15 min
same,half-life,[1]; Monkey 2,49.2 min
same,AUC,"[1]; Monkey 2, read-out: AUC",239 ng·h/mL
same,AUC,"[1]; Monkey 2, read-out: AUC Extrap",247 ng·h/mL
same,Cmax,[1]; Monkey 3,206 ng/mL
same,Tmax,[1]; Monkey 3,30 min
same,half-life,[1]; Monkey 3,40.8 min
same,AUC,"[1]; Monkey 3, read-out: AUC",141 ng·h/mL
same,AUC,"[1]; Monkey 3, read-out: AUC Extrap",144 ng·h/mL
same,Cmax,[1]; Monkey 4,133 ng/mL
same,Tmax,[1]; Monkey 4,60 min
same,half-life,[1]; Monkey 4,37.8 min
same,AUC,"[1]; Monkey 4, read-out: AUC",159 ng·h/mL
same,AUC,"[1]; Monkey 4, read-out: AUC Extrap",163 ng·h/mL
same,% AUC Extrap,[1]; Mean,2.46%
same,% AUC Extrap,[1]; Monkey 1,2.28%
same,% AUC Extrap,[1]; Monkey 2,3.05%
same,% AUC Extrap,[1]; Monkey 3,1.96%
same,% AUC Extrap,[1]; Monkey 4,2.56%
same,F,[1]; Mean,2.1%
same,F,[1]; Monkey 1,2.1%
same,F,[1]; Monkey 2,2.8%
same,F,[1]; Monkey 3,1.6%
same,F,[1]; Monkey 4,1.8%
same,IC50,[2],37.5 nM
same,AUC increase vs. oral administration of Ex. 4,[3],1.0
same,AUC,[4],265 ng·h/mL
same,AUC increase vs. oral administration of Ex. 4,[5],1.0
